Assay results taken from US20230346948A1, “Lipid conjugated peptide inhibitors of PICK1” (University of Copenhagen, priority 2020, published 2023).
Where two headings read alike, the source gives them in different places.

Tests used:
[1] = test system: neuropathic pain (SNI model); assay: Spared Nerve Injury (SNI) model of neuropathic pain, von Frey; assay type: in vivo, mice; conditions: for relief of evoked pain (paw withdrawal threshold): day 7 after SNI, tested 1-6 h
Description: Neuropathic pain. The SNI pain experiment was performed by Phenotype Expertise-Pain and CNS behaviour CRO under supervision of […]). Study was performed on 8 weeks old […] male mice (Charles River). The spared nerve injury surgery was performed on anaesthetized mice. Ligature and transection of the common peroneal and tibial distal branches of the sciatic nerve was performed, leaving the sural branch intact. […] The experimenter was blinded to mice treatment. […] All the compounds were diluted in PBS and administered s.c. at 10 μL/g. Statistical analysis was performed using GraphPad Prism 6.0. Two-way RM ANOVA followed by Bonferroni's post-hoc test. Significance level set to p<0.05. Neuropathic pain. Study was performed on 8 weeks old […] male mice (Charles River). The spared nerve injury surgery was performed on anaesthetized mice. Ligature and transection of the common peroneal and tibial distal branches of the sciatic nerve was performed, leaving the sural branch intact. […] The experimenter was blinded to mice treatment. […] All the compounds were diluted in PBS and administered 10 μmol/kg (10 μL/gram) […]. at 10 μL/g. Statistical analysis was performed using GraphPad Prism 6.0. Two-way RM ANOVA followed by Bonferroni's post-hoc test. Significance level set to p<0.05. Neuropathic pain. Study was performed on 8 weeks old […] male mice (Charles River). The spared nerve injury surgery was performed on anaesthetized mice. Ligature and transection of the common peroneal and tibial distal branches of the sciatic nerve was performed, leaving the sural branch intact. […] The mice were testes in von Frey monthly and the hyperalgesic response at 52 weeks was sustained. […] The experimenter was blinded to mice treatment. After injection, mechanical threshold was measured, 2 and 5 hrs. All the compounds were diluted in PBS and administered s.c. at 10 μL/g, 30 μmol/kg. Statistical analysis was performed using GraphPad Prism 6.0.

[2] = Size exclusion chromatography, self-assembly in solution; assay type: physicochemical; conditions: Superdex200 Increase 10/300
Description: Size exclusion chromatography: Size exclusion chromatography was done using an Äkta purifier with a Superdex200 Increase 10/300 column, where 500 μL of […] or […] at the indicated concentration was injected onto the column. Absorbance profile was measured at 280 nm and plotted against elution volume using Graph Pad Prism 8.3.

[3] = test system: diabetic neuropathy (STZ model); conditions: for maximum reversal of mechanical response threshold: 2 h post-administration
Description: Diabetic neuropathy (STZ) model. Diabetes is induced by a single IP injection of […]. Streptozocin solution (100 μl/10 g, Sigma-aldrich S0130, batch #WXBB7152V). Glycemia is tested before, and 7 days after injection.
The mechanical threshold response of the operated mice was measured with calibrated von Frey filaments (“up/down” method) and the 50% threshold (g) was calculated. The experimenter was blinded to mice treatment. […] Compounds were diluted in PBS (vehicle) and administered s.c. at 10 μL/g, in doses as indicated (gabapentine, 5MPK). Statistical analysis was performed using GraphPad Prism 6.0.

[4] = test system: thermal hypersensitivity (CFA model); assay: Hargreaves test, thermal hypersensitivity in CFA model; assay type: in vivo, mice; conditions: s.c. 10 μmol/kg
Description: Inflammatory pain (CFA model): Animals were habituated to the experimental room for a minimum of 60 min before initiation of the experiment. Hargreave's test was performed by application of radiant heat light to the plantar surface of both hindpaw. The response latency was measured by an automated readout (Ugo Basile, Italy). The baseline paw withdrawal latency of both hind paws in response to radiant heat stimulation was performed before CFA injection, and no difference between the two pre-selected groups was found. The inflammatory pain was induced by […] of 50 μL undiluted Complete Freund's Adjuvant (CFA) ([…], Sigma) unilaterally into the intraplantar surface of the right hind paw, whereas control mice were injected with the same amount of 0.9% saline (B. Braun, Germany). All intraplantar injections were performed with and insulin needle (0.3 mL BD Micro-Fine) while the animal was under isoflurane anesthesia (2%) for maximum 60 seconds. On day 3 after CFA injection, mice were placed in individual red cylinders (8 cm in diameter, 7.5 cm tall) and thermal hyperalgesia was confirmed by a baseline reading with IR of 20. Three measurements were performed on each hindpaw of each mouse. A positive trial was defined as sudden paw withdrawal, flinching and/or paw licking induced by the infrared light. Measurements were performed before CFA injection, and at 3+4 days after CFA injection. At day 3, the measurements were performed before treatment, as well as 1, 5 and 21 hours after treatment. Peptide and vehicle were administered s.c. (10 μL/g)), and at a concentration of 0 or 10 μmol/kg. Statistical analysis was performed using GraphPad Prism 6.0. Two-way RM ANOVA followed by Bonferroni's post-hoc test. Significance level set to p<0.05.

[5] = Plasma exposure after s.c. injection, LC-MS; assay type: in vivo; conditions: male, C57BL/6N, mouse, sc; for Cmax: at 1 h, read-out: maximal plasma concentration
Description: Three point on the down-slope was determined from 3 points on the elimination phase.

## CCCCCCCCCCCCCC(=O)N(CCOCCOCCC(=O)N[C@@H](Cc1c[nH]cn1)C(=O)N[C@@H](Cc1c[nH]c2ccccc12)C(=O)N[C@@H](CC(C)C)C(=O)N[C@@H](CCCCN)C(=O)N[C@H](C(=O)O)C(C)C)CCOCCOCCC(=O)N[C@@H](Cc1c[nH]cn1)C(=O)N[C@@H](Cc1c[nH]c2ccccc12)C(=O)N[C@@H](CC(C)C)C(=O)N[C@@H](CCCCN)C(=O)N[C@H](C(=O)O)C(C)C [myr-NPEG4-(HWLKV)2]
[1]; SNI model, Example 8
  paw withdrawal threshold of uninjured contralateral paw: remained unaltered
[1]; s.c. 2 μmol/kg
  relief of evoked pain (paw withdrawal threshold): no significant pain relief
[1]; s.c. 10 μmol/kg
  relief of evoked pain (paw withdrawal threshold): significant pain relief up to 3 hours post injection
[1]; s.c. 30 μmol/kg, 52 weeks after SNI, tested 2 and 5 h
  relief of evoked pain (paw withdrawal threshold), chronic pain: highly significant effect of the treatment at 5 hrs
[2]
  SEC elution compared with unconjugated NPEG4-(HWLKV)2: eluted at lower elution volume
[3]; s.c. 2 μmol/kg
  analgesic effect: weaker effect
  maximum reversal of mechanical response threshold: 49.2±7.9 % of baseline
[3]; s.c. 10 μmol/kg
  analgesic effect: strong and long-lasting effect up to 4 h
  maximum reversal of mechanical response threshold: 67.3±4.5 % of baseline
[4]; 5 hours
  pain relief (paw withdrawal latency), sensitized paw: less pronounced
[4]; day 3 after CFA
  paw withdrawal latency, contralateral (healthy) paw: no significant changes
  paw withdrawal latency, sensitized (ipsilateral) paw: highly significant increase in paw withdrawal latency
[4]; following day (21 h)
  pain relief (paw withdrawal latency), sensitized paw: fully dissolved
[5]; s.c. 3.75 mg/kg (2 μmol/kg)
  Cmax: 1450 ± 106 ng/mL
[5]; s.c. 18.8 mg/kg (10 μmol/kg)
  Cmax: 6170 ± 508 ng/mL
[5]; s.c. 93.8 mg/kg (50 μmol/kg)
  Cmax: 20300 ± 642 ng/mL
[5]; summary over doses
  half-life: 30 to 45 min
